Laboratory results reported in publication PMC12362587, “Untargeted Diversity-Oriented Synthesis for the Discovery of New Antitumor Agents: An Integrated Approach of Inverse Virtual Screening, Bioinformatics, and Omics for Target Deconvolution” (Journal of Medicinal Chemistry, 2025).

How the values were obtained:
MTT cell viability assay = assay type: cell-based, human; conditions: human, HaCaT keratinocyte cells (healthy control line), 24 h, compounds 0.01–40 μM, healthy control line, read-out: In Vitro Cytotoxicity, EC50 ± SD, HaCaT
Excerpt: (§1) Initially, we phenotypically screened the synthesized compounds over a panel of tumor cell lines composed of HEPG2, A375, SHSY5Y, MCF7, and A549 derived from liver tumor, melanoma, neuroblastoma, breast cancer, and lung adenocarcinoma, respectively. We also considered the HaCaT cell line, coming from keratinocytes, as a healthy control line. As reference, cytotoxic chemotherapeutic agent 5-fluorouracil (5-FU) has been used. The results obtained performing the MTT (3-(4,5-dimethylthiazolyl-2)-2,5-diphenyltetrazolium bromide) assay are summarized in Table .
(§2) The human neuroblastoma SHSY5Y, melanoma A375, human breast cancer MCF7, nonsmall lung cancer A549, and human epidermal keratinocyte HaCaT cell lines were obtained from ATCC and were grown in Dulbecco’s Modified Eagle Medium (DMEM) supplemented with 10% (v/v) FBS, 2 mM L-glutamine, 100 U/mL penicillin, and 0.1 mg/mL streptomycin.
(§3) Cell viability was established by measuring mitochondrial metabolic activity with MTT. In brief, HEPG2 (1 × 10^4 cells/well), A375 (2 × 10^3 cells/well), HaCaT (3 × 10^3 cells/well), A549 (3 × 10^3 cells/well), SHSY5Y (2 × 10^4 cells/well), and MCF 7 (5 × 10^3 cells/well) were plated into 96-well plates for 24 h, then the compounds (0.01–40 μM) were added. After 24h, cells were replaced with a fresh medium containing 0.5 mg/mL MTT. Cells were incubated 1–3 h at 37 °C, then the medium was discarded, and formazan blue crystals in the cells were dissolved in 100 μL per well of a solution containing isopropanol/HCl 0.1 M. The absorbance was measured at 570 nm using a microplate reader (Multiskan Go, Thermo Scientific, Waltham, MA, USA). Cell viability was expressed as a percentage relative to the untreated cells cultured in medium with 0.1% DMSO and set to 100%, whereas 10% DMSO was used as positive control and set to 0% of viability. The EC50 values were calculated using GraphPad Prism 8.0 software by nonlinear regression of dose–response inhibition.

HEPG2 = assay: MTT cell viability assay; assay type: cell-based; conditions: Homo sapiens, 24 h, compounds 0.01–40 μM, read-out: In Vitro Cytotoxicity, EC50 ± SD, HEPG2
Excerpt: as §1
The human hepatoma HEPG2 cell line was obtained from American Type Culture Collection (ATCC, Rockville, MD, USA). Cells were grown in Eagle’s Minimum Essential Medium (EMEM) supplemented with 10% (v/v) fetal bovine serum (FBS), 2 mM L-glutamine, 1% (v/v) nonessential amino acids, 100 U/mL penicillin, and 0.1 mg/mL streptomycin.
as §3

A375 = assay: MTT cell viability assay; assay type: cell-based; conditions: Homo sapiens, A-375, 24 h, compounds 0.01–40 μM, read-out: In Vitro Cytotoxicity, EC50 ± SD, A375
Excerpt: as §1, §2, §3

A549 = assay: MTT cell viability assay; assay type: cell-based; conditions: Homo sapiens, 24 h, compounds 0.01–40 μM, read-out: In Vitro Cytotoxicity, EC50 ± SD, A549
Excerpt: as §1, §2, §3

MCF7 = assay: MTT cell viability assay; assay type: cell-based; conditions: Homo sapiens, 24 h, compounds 0.01–40 μM, read-out: In Vitro Cytotoxicity, EC50 ± SD, MCF7
Excerpt: as §1, §2, §3

SHSY5Y = assay: MTT cell viability assay; assay type: cell-based; conditions: Homo sapiens, SH-SY5Y, 24 h, compounds 0.01–40 μM, read-out: In Vitro Cytotoxicity, EC50 ± SD, SHSY5Y
Excerpt: as §1, §2, §3

[1] = system: cancer cell lines (HEPG2, A375, SHSY5Y, MCF7, A549); assay: MTT cytotoxicity screen over panel of tumor cell lines; assay type: cell-based, human; conditions: in words
Excerpt: as §1, §3

HaCaT = assay: MTT cell viability assay; assay type: cell-based, human; conditions: in words
Excerpt: as §1, §2, §3

## CC(C)C[C@@H]1NC(=O)[C@H](Cc2ccccc2)N(Cc2ccccc2)C1=O [Compound 41, (3S,6S)-1,6-Dibenzyl-3-isobutylpiperazine-2,5-dione]
MTT cell viability assay
  EC50 at 24 h: > 40 µM
HEPG2
  EC50: > 40 µM
A375
  EC50: > 40 µM
A549
  EC50: > 40 µM
MCF7
  EC50: > 40 µM
SHSY5Y
  EC50: > 40 µM
[1]
  cytotoxic activity over the cancer cell lines: no activity

## CC(C)C[C@@H]1NC(=O)c2ccccc2N(Cc2ccc(C(F)(F)F)cc2)C1=O [Compound 29, (S)-3-Isobutyl-1-(4-(trifluoromethyl)benzyl)-3,4-dihydro-1H-benzo[e][1,4]diazepine-2,5-dione]
MTT cell viability assay
  EC50 at 24 h: > 40 µM
HEPG2
  EC50: 25.8 ± 2.74 µM
A375
  EC50: 29.4 ± 4.43 µM
A549
  EC50: > 40 µM
MCF7
  EC50: > 40 µM
SHSY5Y
  EC50: > 40 µM

## CC(C)C[C@H]1CNc2ccccc2C(=O)N1Cc1ccc(C(F)(F)F)cc1 [Compound 33, (S)-3-Isobutyl-4-(4-(trifluoromethyl)benzyl)-1,2,3,4-tetrahydro-5H-benzo[e][1,4]diazepin-5-one]
MTT cell viability assay
  EC50 at 24 h: 9.62 ± 1.12 µM
HEPG2
  EC50: 2.69 ± 0.85 µM
A375
  EC50: 2.51 ± 1.02 µM
A549
  EC50: 10.4 ± 1.01 µM
MCF7
  EC50: 13.9 ± 2.78 µM
SHSY5Y
  EC50: 13.5 ± 2.22 µM
[1]
  selectivity, tumor cell lines versus healthy line: lack of selectivity

## CC(C)C[C@@H]1NC(=O)OCc2ccccc2NC1=O [Compound 52, (S)-3-Isobutyl-1,3,4,7-tetrahydrobenzo[g][1,3,6]oxadiazonine-2,5-dione]
MTT cell viability assay
  EC50 at 24 h: > 40 µM
HEPG2
  EC50: > 40 µM
A375
  EC50: > 40 µM
A549
  EC50: > 40 µM
MCF7
  EC50: > 40 µM
SHSY5Y
  EC50: > 40 µM
[1]
  cytotoxic activity over the cancer cell lines: no activity

## O=c1[nH]cc(F)c(=O)[nH]1 [Compound 5-FU, 5-fluorouracil, reference compound]
MTT cell viability assay
  EC50 at 24 h: 0.481 ± 0.059 µM
HEPG2
  EC50: 0.056 ± 0.021 µM
A375
  EC50: 0.032 ± 0.011 µM
A549
  EC50: 0.047 ± 0.02 µM
MCF7
  EC50: 0.023 ± 0.009 µM
SHSY5Y
  EC50: 0.072 ± 0.026 µM

## O=C1N[C@@H](Cc2ccccc2)C(=O)N(Cc2ccc(C(F)(F)F)cc2)c2ccccc21 [Compound 28, (S)-3-Benzyl-1-(4-(trifluoromethyl)benzyl)-3,4-dihydro-1H-benzo[e][1,4]diazepine-2,5-dione]
MTT cell viability assay
  EC50 at 24 h: 26.9 ± 4.4 µM
HEPG2
  EC50: 11.1 ± 2.25 µM
A375
  EC50: 13 ± 2.1 µM
A549
  EC50: 8.8 ± 1.37 µM
MCF7
  EC50: 11.7 ± 3.12 µM
SHSY5Y
  EC50: 10.7 ± 1.26 µM
[1]
  selectivity, tumor cell lines versus healthy line: lack of selectivity

## CC(C)C[C@H]1C(=O)Nc2ccccc2N1Cc1ccccc1 [Compound 49, (S)-4-Benzyl-3-isobutyl-3,4-dihydroquinoxalin-2(1H)-one]
MTT cell viability assay
  EC50 at 24 h: > 40 µM
HEPG2
  EC50: > 40 µM
A375
  EC50: > 40 µM
A549
  EC50: > 40 µM
MCF7
  EC50: > 40 µM
SHSY5Y
  EC50: > 40 µM
[1]
  cytotoxic activity over the cancer cell lines: no activity

## CC(C)COC(=O)[C@H](Cc1ccccc1)N1Cc2ccccc2NC1=O [Compound 64, Isobutyl (S)-2-(2-Oxo-1,4-dihydroquinazolin-3(2H)-yl)-3-phenylpropanoate]
MTT cell viability assay
  EC50 at 24 h: 24.4 ± 4.51 µM
HEPG2
  EC50: 7.97 ± 2.45 µM
A375
  EC50: 8.64 ± 1.66 µM
A549
  EC50: 32.3 ± 5.76 µM
MCF7
  EC50: 9.55 ± 1.05 µM
SHSY5Y
  EC50: 28.2 ± 3.2 µM
[1]
  selectivity, tumor cell lines versus healthy line: lack of selectivity

## CC(C)(C)CNC(=O)[C@H](Cc1ccccc1)N1Cc2ccccc2OC1=O [Compound 8, (S)-N-Neopentyl-2-(2-oxo-2H-benzo[e][1,3]oxazin-3(4H)-yl)-3-phenylpropanamide]
MTT cell viability assay
  EC50 at 24 h: 34.8 ± 3.79 µM
HaCaT
  cytotoxicity effect over the HaCaT cell lines: exhibited cytotoxicity effect
HEPG2
  EC50: 21.4 ± 4.94 µM
A375
  EC50: 17.5 ± 3.22 µM
A549
  EC50: 15 ± 2.84 µM
MCF7
  EC50: 13.8 ± 2.28 µM
SHSY5Y
  EC50: > 40 µM

## CC(C)CN1c2ccccc2NC(=O)[C@@H]1Cc1ccccc1 [Compound 48, (S)-3-Benzyl-4-isobutyl-3,4-dihydroquinoxalin-2(1H)-one]
MTT cell viability assay
  EC50 at 24 h: > 40 µM
HEPG2
  EC50: > 40 µM
A375
  EC50: > 40 µM
A549
  EC50: 35.5 ± 5.48 µM
MCF7
  EC50: > 40 µM
SHSY5Y
  EC50: > 40 µM
[1]
  cytotoxic activity over the cancer cell lines: no activity

## CC(C)C[C@@H](C(=O)OCc1ccccc1)n1c(=O)[nH]c2ccccc2c1=O [Compound 23, Benzyl (S)-2-(2,4-Dioxo-1,4-dihydroquinazolin-3(2H)-yl)-4-methylpentanoate]
MTT cell viability assay
  EC50 at 24 h: 10.2 ± 1.84 µM
HEPG2
  EC50: 1.7 ± 1.05 µM
A375
  EC50: 3.88 ± 1.64 µM
A549
  EC50: 4.12 ± 1.89 µM
MCF7
  EC50: 12.2 ± 2.64 µM
SHSY5Y
  EC50: 3.5 ± 1.41 µM
[1]
  selectivity, tumor cell lines versus healthy line: lack of selectivity

## CC(C)C[C@H]1CN(Cc2ccc(C(F)(F)F)cc2)c2ccccc2C(=O)N1Cc1ccc(C(F)(F)F)cc1 [Compound 34, (S)-3-Isobutyl-1,4-bis(4-(trifluoromethyl)benzyl)-1,2,3,4-tetrahydro-5H-benzo[e][1,4]diazepin-5-one]
MTT cell viability assay
  EC50 at 24 h: > 40 µM
HEPG2
  EC50: 11.5 ± 2.16 µM
A375
  EC50: 5.14 ± 2.15 µM
A549
  EC50: 17.6 ± 3.65 µM
MCF7
  EC50: > 40 µM
SHSY5Y
  EC50: > 40 µM

## CC(C)C[C@H]1CN(Cc2ccc(C(F)(F)F)cc2)c2ccccc2CN1Cc1ccc(C(F)(F)F)cc1 [Compound 38, (S)-3-Isobutyl-1,4-bis(4-(trifluoromethyl)benzyl)-2,3,4,5-tetrahydro-1H-benzo[e][1,4]diazepine]
MTT cell viability assay
  EC50 at 24 h: > 40 µM
HEPG2
  EC50: 15.4 ± 1.71 µM
A375
  EC50: 23.1 ± 3.1 µM
A549
  EC50: 37.9 ± 1.64 µM
MCF7
  EC50: > 40 µM
SHSY5Y
  EC50: > 40 µM

## CC(C)C[C@@H](C(=O)NCc1ccccc1)N1Cc2ccccc2OC1=O [Compound 7, (S)-N-Benzyl-4-methyl-2-(2-oxo-2H-benzo[e][1,3]oxazin-3(4H)-yl)pentanamide]
MTT cell viability assay
  EC50 at 24 h: 38.4 ± 4.54 µM
HaCaT
  cytotoxicity effect over the HaCaT cell lines: exhibited cytotoxicity effect
HEPG2
  EC50: 35.6 ± 3.22 µM
A375
  EC50: 13.7 ± 1.4 µM
A549
  EC50: > 40 µM
MCF7
  EC50: 20.2 ± 3.57 µM
SHSY5Y
  EC50: 11.5 ± 2.05 µM

## CC(C)COC(=O)[C@H](Cc1ccccc1)n1c(=O)[nH]c2ccccc2c1=O [Compound 22, Isobutyl (S)-2-(2,4-Dioxo-1,4-dihydroquinazolin-3(2H)-yl)-3-phenylpropanoate]
MTT cell viability assay
  EC50 at 24 h: 27 ± 4.09 µM
HEPG2
  EC50: 4.28 ± 2.04 µM
A375
  EC50: 7.12 ± 2.54 µM
A549
  EC50: 36.3 ± 5.72 µM
MCF7
  EC50: 11.2 ± 3.14 µM
SHSY5Y
  EC50: 30.4 ± 3.92 µM

## CC(C)CN1Cc2ccccc2NC[C@@H]1Cc1ccccc1 [Compound 37, (S)-3-Benzyl-4-isobutyl-2,3,4,5-tetrahydro-1H-benzo[e][1,4]diazepine]
MTT cell viability assay
  EC50 at 24 h: > 40 µM
HEPG2
  EC50: > 40 µM
A375
  EC50: 8.92 ± 2.72 µM
A549
  EC50: > 40 µM
MCF7
  EC50: > 40 µM
SHSY5Y
  EC50: > 40 µM

## O=C1[C@H](Cc2ccccc2)N(Cc2ccc(C(F)(F)F)cc2)C(=O)c2ccccc2N1Cc1ccc(C(F)(F)F)cc1 [Compound 30, (S)-3-Benzyl-1,4-bis(4-(trifluoromethyl)benzyl)-3,4-dihydro-1H-benzo[e][1,4]diazepine-2,5-dione]
MTT cell viability assay
  EC50 at 24 h: > 40 µM
HEPG2
  EC50: 5.06 ± 1.73 µM
A375
  EC50: 7.44 ± 2.12 µM
A549
  EC50: > 40 µM
MCF7
  EC50: 13.8 ± 3.11 µM
SHSY5Y
  EC50: 37.3 ± 4.45 µM
